Measured values as given in patent US9255090B2, “Heterocyclyl derivatives and their use as prostaglandin D2 receptor modulators” (Actelion Pharmaceuticals Ltd., priority 2012, dated 2016).

Target: hCRTH2 receptor (Homo sapiens (Human), UniProt Q9Y5Y4)
Experiment: hCRTH2 receptor membranes radioligand (3H-PGD2) displacement assay
Assay type: binding
Details: 3H-PGD2 radioligand displacement, HEK293-hCRTH2 membranes
Procedure, shortened: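 Compound was first mixed with buffer, then 3H-PGD2 was added at 2.5 nM, and the reaction was started with hCRTH2 membranes from HEK293 cells at 20 μg/well. After 90 min at room temperature, mixtures were filtered and washed with ice-cold buffer, and retained radioactivity was counted.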

Chain of hCRTH2 receptor (Q9Y5Y4 whole entry): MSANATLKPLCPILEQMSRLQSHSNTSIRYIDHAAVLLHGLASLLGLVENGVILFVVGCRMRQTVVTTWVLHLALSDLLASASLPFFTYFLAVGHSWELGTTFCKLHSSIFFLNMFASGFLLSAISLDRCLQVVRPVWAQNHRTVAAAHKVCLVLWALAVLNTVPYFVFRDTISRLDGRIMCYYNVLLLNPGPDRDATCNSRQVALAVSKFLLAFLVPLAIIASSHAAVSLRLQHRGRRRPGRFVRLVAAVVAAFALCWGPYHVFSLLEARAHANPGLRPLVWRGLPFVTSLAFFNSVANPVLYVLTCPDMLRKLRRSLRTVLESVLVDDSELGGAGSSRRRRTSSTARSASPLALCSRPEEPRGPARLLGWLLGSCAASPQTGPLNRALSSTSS

Row | IC50 [nM] | Structure (SMILES)
1 | 8.8 | CCOc1ccc(CC(=O)O)cc1-c1ccc(F)c2c1CN(C(=O)OCc1ccnn1C)CC2 [Example 367, 8-(5-Carboxymethyl-2-ethoxy-phenyl)-5-fluoro-3,4-dihydro-1H-isoquinoline-2-carboxylic acid 2-methyl-2H-pyrazol-3-ylmethyl ester]
2 | 0.2 | CCOc1cc(CC(=O)O)ccc1-c1ccc(F)c2c1CN(C(=O)CC1CCOc3cc(F)ccc31)CC2 (racemic) [Example 327]
3 | 42.1 | COc1ccc(CC(=O)O)cc1-c1ccc(F)c2c1CN(C(=O)CCc1ccccc1C)CC2 [Example 56, {3-[5-Fluoro-2-(3-o-tolyl-propionyl)-1,2,3,4-tetrahydro-isoquinolin-8-yl]-4-methoxy-phenyl}-acetic acid]
4 | 4.22 | COc1ccc(CC(=O)O)cc1-c1ccc(F)c2c1CN(C(=O)[C@@H]1C[C@H]1c1ccccc1C)CC2 (racemic) [Example 6, (±)-{3-[5-Fluoro-2-(trans-2-o-tolyl-cyclopropanecarbonyl)-1,2,3,4-tetrahydro-isoquinolin-8-yl]-4-methoxy-phenyl}-acetic acid]
5 | 1.38 | CC(C)Oc1ccc(OCC(=O)O)cc1-c1ccc(F)c2c1CN(C(=O)[C@@H]1C[C@H]1c1ccccc1)CC2 [Example 161, {3-[5-Fluoro-2-((1R,2R)-2-phenyl-cyclopropanecarbonyl)-1,2,3,4-tetrahydro-isoquinolin-8-yl]-4-isopropoxy-phenoxy}-acetic acid]
6 | 1.7 | CCOc1cc(CC(=O)O)ccc1-c1ccc(F)c2c1CN(C(=O)CCc1ccccc1F)CC2 [Example 317, (3-Ethoxy-4-{5-fluoro-2-[3-(2-fluoro-phenyl)-propionyl]-1,2,3,4-tetrahydro-isoquinolin-8-yl}-phenyl)-acetic acid]
7 | 0.7 | CCOc1ccc(CC(=O)O)cc1-c1ccc(F)c2c1CN(C(=O)NCc1ccc(F)cc1)CC2 [Example 434, {4-Ethoxy-3-[5-fluoro-2-(4-fluoro-benzylcarbamoyl)-1,2,3,4-tetrahydro-isoquinolin-8-yl]-phenyl}-acetic acid]
8 | 2.11 | COc1ccc(CC(=O)O)cc1-c1ccc(F)c2c1CN(C(=O)[C@@H]1C[C@H]1c1ccccc1Cl)CC2 (racemic) [Example 3, (±)-(3-{2-[trans-2-(2-Chloro-phenyl)-cyclopropanecarbonyl]-5-fluoro-1,2,3,4-tetrahydro-isoquinolin-8-yl}-4-methoxy-phenyl)-acetic acid]
9 | 209 | O=C(O)COc1ccc(-c2ccc(F)c3c2CN(C(=O)OCc2ccccc2)CC3)cc1 [Example 172, 8-(4-Carboxymethoxy-phenyl)-5-fluoro-3,4-dihydro-1H-isoquinoline-2-carboxylic acid benzyl ester]
10 | 250 | COc1ccc(CC(=O)O)cc1-c1ccc(C(F)(F)F)c2c1CN(C(=O)C1CC1)CC2 [Example 82, [3-(2-Cyclopropanecarbonyl-5-trifluoromethyl-1,2,3,4-tetrahydro-isoquinolin-8-yl)-4-methoxy-phenyl]-acetic acid]
11 | 30.6 | COc1ccc(CC(=O)O)cc1-c1ccc(F)c2c1CN(C(=O)NCc1ccccc1)CC2 [Example 136, [3-(2-Benzylcarbamoyl-5-fluoro-1,2,3,4-tetrahydro-isoquinolin-8-yl)-4-methoxy-phenyl]-acetic acid]
12 | 897 | CCOc1ccc(CC(=O)O)cc1-c1ccc(F)c2c1CN(C(=O)Cc1ccccn1)CC2 [Example 340, {4-Ethoxy-3-[5-fluoro-2-(2-pyridin-2-yl-acetyl)-1,2,3,4-tetrahydro-isoquinolin-8-yl]-phenyl}-acetic acid]
13 | 3.19 | COc1ccc(CC(=O)O)cc1-c1c(F)ccc2c1CN(C(=O)[C@@H]1C[C@H]1c1ccccc1)CC2 [Example 35, {3-[7-Fluoro-2-((1R,2R)-2-phenyl-cyclopropanecarbonyl)-1,2,3,4-tetrahydro-isoquinolin-8-yl]-4-methoxy-phenyl}-acetic acid]
14 | 7.31 | O=C(O)Cc1ccc(C(F)(F)F)c(-c2ccc(F)c3c2CN(C(=O)OCc2ccccc2)CC3)c1 [Example 8, 8-(5-Carboxymethyl-2-trifluoromethyl-phenyl)-5-fluoro-3,4-dihydro-1H-isoquinoline-2-carboxylic acid benzyl ester]
15 | 22.9 | COc1ccc(CC(=O)O)cc1-c1ccc(F)c2c1CN(C(=O)CC1OCc3ccccc31)CC2 (racemic) [Example 362]
16 | 172 | COc1ccc(CC(=O)O)cc1-c1ccc(F)c2c1CN(C(=O)C1Cc3ccccc3C1)CC2 [Example 110, {3-[5-Fluoro-2-(indane-2-carbonyl)-1,2,3,4-tetrahydro-isoquinolin-8-yl]-4-methoxy-phenyl}-acetic acid]
17 | 15.7 | COc1ccc(CC(=O)O)cc1-c1ccc(F)c2c1CN(C(=O)CCc1cccc(C)n1)CC2 [Example 92, (3-{5-Fluoro-2-[3-(6-methyl-pyridin-2-yl)-propionyl]-1,2,3,4-tetrahydro-isoquinolin-8-yl}-4-methoxy-phenyl)-acetic acid]
18 | 0.6 | CCOc1cc(CC(=O)O)ccc1-c1ccc(F)c2c1CN(C(=O)CC1COCc3ccccc31)CC2 (racemic) [Example 232]

Row | IC50 [nM] | Structure (SMILES)
19 | 5.39 | COc1ccc(CC(=O)O)cc1-c1ccc(F)c2c1CN(C(=O)[C@@H]1C[C@H]1c1cccc(Cl)c1)CC2 (racemic) [Example 4, (±)-(3-{2-[trans-2-(3-Chloro-phenyl)-cyclopropanecarbonyl]-5-fluoro-1,2,3,4-tetrahydro-isoquinolin-8-yl}-4-methoxy-phenyl)-acetic acid]
20 | 30.2 | COc1ccc(CC(=O)O)cc1-c1ccc(F)c2c1CN(C(=O)COc1ccccc1)CC2 [Example 43, {3-[5-Fluoro-2-(2-phenoxy-acetyl)-1,2,3,4-tetrahydro-isoquinolin-8-yl]-4-methoxy-phenyl}-acetic acid]
21 | 78.2 | CCCNC(=O)N1CCc2c(F)ccc(-c3ccc(CC(=O)O)cc3OCC)c2C1 [Example 447, [3-Ethoxy-4-(5-fluoro-2-propylcarbamoyl-1,2,3,4-tetrahydro-isoquinolin-8-yl)-phenyl]-acetic acid]
22 | 28.4 | COc1ccc(CC(=O)O)cc1-c1ccc(F)c2c1CN(C(=O)CC1(C)CCCc3ccccc31)CC2 (racemic) [Example 239]
23 | 25.6 | Cc1ccc(CC(=O)O)cc1-c1ccc(F)c2c1CN(C(=O)OCc1ccccc1)CC2 [Example 7, 8-(5-Carboxymethyl-2-methyl-phenyl)-5-fluoro-3,4-dihydro-1H-isoquinoline-2-carboxylic acid benzyl ester]
24 | 5.41 | COc1ccc(CC(=O)O)cc1-c1ccc(F)c2c1CN(C(=O)CCCc1ccccc1)CC2 [Example 117, {3-[5-Fluoro-2-(4-phenyl-butyryl)-1,2,3,4-tetrahydro-isoquinolin-8-yl]-4-methoxy-phenyl}-acetic acid]
25 | 444 | COc1cc(OCC(=O)O)ccc1-c1ccc(F)c2c1CN(C(=O)OCc1ccccc1)CC2 [Example 424, 8-(4-Carboxymethoxy-2-methoxy-phenyl)-5-fluoro-3,4-dihydro-1H-isoquinoline-2-carboxylic acid benzyl ester]
26 | 13.6 | O=C(O)COc1ccc(Cl)c(-c2ccc(F)c3c2CN(C(=O)OCc2ccccc2)CC3)c1 [Example 176, 8-(5-Carboxymethoxy-2-chloro-phenyl)-5-fluoro-3,4-dihydro-1H-isoquinoline-2-carboxylic acid benzyl ester]
27 | 21.8 | O=C(O)Cc1cc(-c2ccc(F)c3c2CN(C(=O)OCc2ccccc2)CC3)ccc1F [Example 12, 8-(3-Carboxymethyl-4-fluoro-phenyl)-5-fluoro-3,4-dihydro-1H-isoquinoline-2-carboxylic acid benzyl ester]
28 | 5.9 | CC(C)Oc1ccc(CC(=O)O)cc1-c1ccc(F)c2c1CN(C(=O)CC(C)(C)c1ccccc1)CC2 [Example 291, {3-[5-Fluoro-2-(3-methyl-3-phenyl-butyryl)-1,2,3,4-tetrahydro-isoquinolin-8-yl]-4-isopropoxy-phenyl}-acetic acid]
29 | 148 | COc1ccc(CC(=O)O)cc1-c1ccc(F)c2c1CN(C(=O)OCC(C)C)CC2 [Example 142, 8-(5-Carboxymethyl-2-methoxy-phenyl)-5-fluoro-3,4-dihydro-1H-isoquinoline-2-carboxylic acid isobutyl ester]
30 | 683 | COc1ccc(CC(=O)O)cc1-c1ccc(F)c2c1CN(C(=O)C1OCCc3ccccc31)CC2 (racemic) [Example 273]
31 | 68.9 | COc1ccc(CC(=O)O)cc1-c1ccc(F)c2c1CN(C(=O)C1CC1)CC2 [Example 52, [3-(2-Cyclopropanecarbonyl-5-fluoro-1,2,3,4-tetrahydro-isoquinolin-8-yl)-4-methoxy-phenyl]-acetic acid]
32 | 4.8 | CCOc1ccc(CC(=O)O)cc1-c1ccc(F)c2c1CN(C(=O)CCc1ccccc1F)CC2 [Example 312, (4-Ethoxy-3-{5-fluoro-2-[3-(2-fluoro-phenyl)-propionyl]-1,2,3,4-tetrahydro-isoquinolin-8-yl}-phenyl)-acetic acid]
33 | 33.1 | COc1ccc(CC(=O)O)cc1-c1ccc(F)c2c1CN(C(=O)[C@H]1C[C@@H]1c1ccccc1)CC2 [Example 81, {3-[5-Fluoro-2-((1S,2S)-2-phenyl-cyclopropanecarbonyl)-1,2,3,4-tetrahydro-isoquinolin-8-yl]-4-methoxy-phenyl}-acetic acid]
34 | 7.4 | O=C(O)Cc1ccc(OCC(F)(F)F)c(-c2ccc(F)c3c2CN(C(=O)CC2OCCc4ccccc42)CC3)c1 (racemic) [Example 306]
35 | 18.1 | CCOc1cc(CC(=O)O)ccc1-c1ccc(F)c2c1CN(C(=O)NCCc1ccccc1)CC2 [Example 443, [3-Ethoxy-4-(5-fluoro-2-phenethylcarbamoyl-1,2,3,4-tetrahydro-isoquinolin-8-yl)-phenyl]-acetic acid]
36 | 913 | COc1ccc(CC(=O)O)cc1-c1ccc(F)c2c1CN(C(=O)CC(C)(C)C)CC2 [Example 129, {3-[2-(3,3-Dimethyl-butyryl)-5-fluoro-1,2,3,4-tetrahydro-isoquinolin-8-yl]-4-methoxy-phenyl}-acetic acid]
